# Tests used:
# [1] = tested on: giant foxtail; experiment: Test A pre-/postemergence herbicide test; assay type: in vivo, Setaria faberi
# How it was run: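 Visual injury rating on a 0–100 scale (0 no effect, 100 complete control) versus untreated controls, about ten days after treatment in greenhouse. Pre: directed soil spray onto seeded sandy loam. Post: spray to runoff on plants 2–10 cm tall at one- to two-leaf stage.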
# [2] = tested on: giant foxtail; experiment: Test B pre-/postemergence herbicide test; assay type: in vivo, Setaria faberi; details: for Foxtail, Giant plant response rating: postemergence, visual rating, scale 0 (no effect) to 100 (complete control)
# How it was run: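 Formulation: non-phytotoxic solvent mix with surfactant. Timing: preemergence on seed and postemergence on 2–18 cm plants, applied concurrently. Readout after 13–15 d greenhouse: visual 0–100 control rating against controls.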
# [3] = tested on: cocklebur; experiment: Test C pre-/postemergence herbicide test; assay type: in vivo, Xanthium strumarium
# How it was run: (§1)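 Pre- and postemergence application, solvent/surfactant formulation; post at 1- to 4-leaf stage (2–18 cm). Greenhouse 12–14 d. Visual rating vs controls, 0 = no effect, 100 = complete control.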
# [4] = tested on: corn; experiment: Test C pre-/postemergence herbicide test; assay type: in vivo, Zea mays; details: preemergence
# How it was run: as §1
# [5] = tested on: kochia; experiment: Test C pre-/postemergence herbicide test; assay type: in vivo, Kochia scoparia; details: preemergence
# How it was run: as §1
# [6] = tested on: yellow nutsedge; experiment: Test C pre-/postemergence herbicide test; assay type: in vivo, Cyperus esculentus; details: preemergence
# How it was run: as §1
# [7] = tested on: pigweed; experiment: Test C pre-/postemergence herbicide test; assay type: in vivo, Amaranthus retroflexus; details: preemergence
# How it was run: as §1
# [8] = tested on: ducksalad; experiment: Test C flooded paddy test; assay type: in vivo, Heteranthera limosa; details: for Plant response rating, Ducksalad: 500 g ai/ha, visual rating after 12 to 14 days
# [9] = tested on: barnyardgrass; experiment: Test C flooded paddy test; assay type: in vivo, Echinochloa crus-galli; details: for Plant response rating, Barnyardgrass: 500 g ai/ha, visual rating after 12 to 14 days
# How it was run: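 Injury scored visually against controls on a 0 (no effect) to 100 (complete control) scale, 12 to 14 days after treatment in greenhouse. Flooded paddy plants treated at 2-leaf stage; postemergence plants at 1- to 4-leaf stage, 2 to 18 cm tall.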
# [10] = 500 g ai/ha, visual rating 0-100, 0 no effect, 100 complete control, preemergence
# [11] = 125 g ai/ha, scale 0 (no effect) to 100 (complete control), visual, 12 to 14 days, preemergence
# [12] = 125 g ai/ha, scale 0 (no effect) to 100 (complete control), visual, 12 to 14 days
# [13] = 62 g ai/ha, scale 0 to 100 (0 no effect, 100 complete control)
# [14] = 125 g ai/ha, scale 0 to 100 (0 no effect, 100 complete control)
# [15] = 250 g ai/ha, scale of 0 to 100, 0 is no effect, 100 is complete control
# [16] = scale 0 to 100 (0 no effect, 100 complete control)
# [17] = 500 g ai/ha, scale 0 to 100 (0 no effect, 100 complete control), visual, 12 to 14 days
structure (smiles),measurement,setting,value
CCn1nc(C(C)(C)C)cc1C(=O)Nc1cccc(SC)c1 [Compound 131],"Foxtail, Giant plant response rating","[1]; Postemergence, 250 g ai/ha, 0 to 100 scale, 0 no effect, 100 complete control",10
same,"Plant response rating, Foxtail, Giant","[1]; Postemergence, 1000 g ai/ha, 0 to 100 scale, 0 no effect, 100 complete control",15
same,"Foxtail, Giant plant response rating","[1]; Preemergence, 1000 g ai/ha, visual rating, 0 to 100 scale (0 no effect, 100 complete control)",75
same,"Foxtail, Giant plant response rating","[1]; preemergence, 250 g ai/ha, visual injury, 0 to 100 scale (0 no effect, 100 complete control)",10
same,"Plant response rating, Foxtail, Giant",[2]; [10],70
same,"Foxtail, Giant plant response rating",[2]; 125 g ai/ha,20
same,"Foxtail, Giant plant response rating",[2]; 500 g ai/ha,30
same,"Plant response rating, Foxtail, Giant","[2]; preemergence, 125 g ai/ha, 0 to 100 scale, 0 is no effect, 100 is complete control",10
same,"Plant response rating (0 = no effect, 100 = complete control), Cocklebur","[3]; 62 g ai/ha, preemergence",0
same,"Plant response rating, Cocklebur",[3]; [11],20
same,"Plant response rating, Cocklebur","[3]; 250 g ai/ha, scale 0 to 100 (0 no effect, 100 complete control), visual, 12 to 14 days, preemergence",25
same,"Plant response rating (0 = no effect, 100 = complete control), Corn",[4]; 62 g ai/ha,0
same,"Plant response rating, Corn",[4]; [12],0
same,"Plant response rating, Corn","[4]; 250 g ai/ha, scale 0 to 100 (0 no effect, 100 complete control), visual, 12 to 14 days",0
same,"Plant response rating (0 = no effect, 100 = complete control), Kochia",[5]; 62 g ai/ha,85
same,"Plant response rating, Kochia",[5]; [12],85
same,"Plant response rating, Nutsedge, Yellow","[6]; 31 g ai/ha, scale 0 to 100, last section of Table C",0
same,"Plant response rating (0 = no effect, 100 = complete control), Nutsedge, Yellow",[6]; 62 g ai/ha,0
same,"Plant response rating, Nutsedge, Yellow",[6]; [12],0
same,"Plant response rating (0 = no effect, 100 = complete control), Pigweed",[7]; 62 g ai/ha,95
same,"Plant response rating, Pigweed",[7]; [12],100
same,Ducksalad plant response rating,[8]; [13],0
same,Ducksalad plant response rating,[8]; [14],20
same,Ducksalad plant response rating,[8]; [15],45
same,"Plant response rating, Ducksalad",[8]; [16],80
same,Barnyardgrass plant response rating,[9]; [13],0
same,Barnyardgrass plant response rating,"[9]; 125 g ai/ha, scale of 0 to 100, 0 is no effect, 100 is complete control",0
same,Barnyardgrass plant response rating,[9]; [15],10
same,"Plant response rating, Barnyardgrass",[9]; [16],30
CCNC(=O)c1cccc(NC(=O)c2sc(C(C)(C)C)nc2CC)c1 [Compound 210],"Foxtail, Giant plant response rating","[1]; Postemergence, 500 g ai/ha, 0 to 100 scale, 0 no effect, 100 complete control",40
same,"Plant response rating, Foxtail, Giant","[1]; Postemergence, 2000 g ai/ha, 0 to 100 scale, 0 no effect, 100 complete control",75
same,"Foxtail, Giant plant response rating","[1]; Preemergence, 2000 g ai/ha, visual rating, 0 to 100 scale (0 no effect, 100 complete control)",100
same,"Foxtail, Giant plant response rating","[1]; preemergence, 500 g ai/ha, visual injury, 0 to 100 scale (0 no effect, 100 complete control)",100
same,"Foxtail, Giant plant response rating (0 to 100 scale)","[2]; 125 g ai/ha, 0 = no effect, 100 = complete control, preemergence",80
same,"Plant response rating, Foxtail, Giant",[2]; [10],100
same,"Foxtail, Giant plant response rating",[2]; 125 g ai/ha,20
same,"Foxtail, Giant plant response rating",[2]; 500 g ai/ha,30
same,"Plant response rating, Cocklebur","[3]; 62 g ai/ha, preemergence, scale 0 to 100",0
same,"Plant response rating, Cocklebur",[3]; [11],0
same,"Plant response rating, Cocklebur","[3]; 250 g ai/ha, scale 0-100, preemergence",0
same,Cocklebur plant response rating,"[3]; Preemergence, 500 g ai/ha, scale 0 to 100, 0 no effect, 100 complete control",5
same,"Plant response rating, Corn","[4]; 62 g ai/ha, scale 0 to 100",0
same,"Plant response rating, Corn",[4]; [12],10
same,"Plant response rating, Corn","[4]; 250 g ai/ha, scale 0-100",20
same,"Plant response rating, Corn",[4]; [17],40
same,"Plant response rating, Kochia","[5]; 62 g ai/ha, scale 0 to 100",0
same,"Plant response rating, Kochia",[5]; [12],90
same,"Plant response rating, Kochia","[5]; 250 g ai/ha, scale 0-100",90
same,"Plant response rating, Kochia",[5]; [17],95
same,"Plant response rating, Nutsedge, Yellow","[6]; 62 g ai/ha, scale 0 to 100",0
same,"Plant response rating, Nutsedge, Yellow",[6]; [12],0
same,"Plant response rating, Nutsedge, Yellow","[6]; 250 g ai/ha, scale 0-100",5
same,"Plant response rating, Nutsedge, Yellow",[6]; [17],30
same,"Plant response rating, Pigweed","[7]; 62 g ai/ha, scale 0 to 100",100
same,"Plant response rating, Pigweed",[7]; [12],100
same,"Plant response rating, Pigweed","[7]; 250 g ai/ha, scale 0-100",100
same,"Plant response rating, Pigweed",[7]; [17],100
same,Ducksalad plant response rating,[8]; [13],40
same,Ducksalad plant response rating,[8]; [14],55
same,Ducksalad plant response rating,[8]; [15],85
same,"Plant response rating, Ducksalad",[8]; [16],90
same,Barnyardgrass plant response rating,[9]; [13],50
same,Barnyardgrass plant response rating,[9]; [14],70
same,Barnyardgrass plant response rating,[9]; [15],85
same,"Plant response rating, Barnyardgrass",[9]; [16],85
